Measurements published in publication PMC9661478 (Journal of Medicinal Chemistry, 2022).

Key:
[1] = target: GDP-KRAS^G12C::SOS1 interaction (Homo sapiens, UniProt P01116, G12C); assay: biochemical
[2] = test system: LS513 cells; assay: LS513 proliferation assay; type: cell-based; conditions: KRAS^G12D mutation
[3] = test system: p-ERK; assay: pERK1/2 immunoassay; conditions: 40 mg/kg ip daily x3
[4] = Body weight changes in the NCI-H358 efficacy study; conditions: both dose groups; less pronounced for the low dose group
[5] = test system: cleaved caspase 3; assay: Cleaved caspase-3 immunoassay; conditions: 40 mg/kg ip daily x3
[6] = test system: GP2D cells; assay: GP2D proliferation assay; type: cell-based; conditions: KRAS^G12D mutation

Sequence of GDP-KRAS^G12C::SOS1 interaction (P01116 1-169 isoform P01116-2 G12C limits assumed): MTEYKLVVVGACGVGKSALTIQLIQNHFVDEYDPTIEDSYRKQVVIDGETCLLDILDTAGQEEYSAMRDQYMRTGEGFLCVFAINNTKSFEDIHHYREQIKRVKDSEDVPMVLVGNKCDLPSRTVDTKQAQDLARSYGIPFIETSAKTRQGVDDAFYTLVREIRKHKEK

| SMILES | IC50 [1] [µM] | concentration above which antiproliferative effect was observed, LS513 cells [2] | reduction of p-ERK levels ([3]; 2 h post last dose) | reduction of p-ERK levels ([3]; 6 h post last dose) | body weight change compared to vehicle [4] | induction of apoptosis (cleaved caspase 3) detectable in treated samples ([5]; 2 h post-dose on day 3) | induction of apoptosis (cleaved caspase 3) detectable in treated samples ([5]; 6 h post-dose on day 3) | concentration above which antiproliferative effect was observed, GP2D cells [6] |
| --- | --- | --- | --- | --- | --- | --- | --- | --- |
| C=CC(=O)N1CCN(c2cccc(-c3noc([C@@]4(C)CCCc5sc(N)c(C#N)c54)n3)c2)CC1 [Compound 22, (4S)-2-Amino-4-methyl-4-(3-{3-[4-(prop-2-enoyl)piperazin-1-yl]phenyl}-1,2,4-oxadiazol-5-yl)-4,5,6,7-tetrahydro-1-benzothiophene-3-carbonitrile] | ~3 | – | – | – | – | – | – | – |
| C=CC(=O)N1CCN(c2cc(-c3noc([C@@]4(C)CCCc5sc(N)c(C#N)c54)n3)nc(N3CCN(C)C[C@@H]3C)c2)CC1 [BI-0474, (4S)-2-Amino-4-(3-{6-[(2S)-2,4-dimethylpiperazin-1-yl]-4-[4-(prop-2-enoyl)piperazin-1-yl]pyridin-2-yl}-1,2,4-oxadiazol-5-yl)-4-methyl-4,5,6,7-tetrahydro-1-benzothiophene-3-carbonitrile] | – | above 4 μM | five-fold | six-fold | some body weight loss | one out of five | all five | above 4 μM |
